Test results reported in patent publication US20250296938A1, “Compounds that Interact with the Ras Superfamily for the Treatment of Cancers, Inflammatory Diseases, Rasopathies, and Fibrotic Disease” (SHY Therapeutics, LLC, priority 2018, published 2025).
Like-named read-outs stand apart in the source and are kept apart here.

Experiments:
MAPK phosphorylation [1] = assay: Western MAPK cell-based phosphorylation assay, MIA PaCa-2; details: Homo sapiens, 10 μM, 6 hours, EGF stimulation
Protocol: (§1) Cell lines: Human NSCLC cells NCI-H1975 and NCI-H1299, and tumor-derived pancreatic cancer cell lines Panc-1, MIA-PaCa-2, and BxPC3, were all purchased from American Type Culture Collection and grown in complete RPMI medium (BxPC3, NCI-H1975 and NCI-H1299) or DMEM-High Glucose (Panc1 and MIA-PaCa-2), supplemented with penicillin (100 U/mL), streptomycin (100 μg/mL), and 10% heat-inactivated FBS at 37° C. in a humidified incubator with 5% CO2.
(§2) Method: Cells were plated at 350000 cells/well density in a 12-well plate, allowed 3 hours to adhere to the plate, then starved in the appropriate medium in the presence of 0.5% FBS overnight. The small molecules to be tested were added to the cells in the final concentration of 10 μM in the presence of 0.3% DMSO for 6 hours incubation at 37° C. For IC50 value determination, serial dilutions of compounds were added to cells under the same conditions. Next, cells were stimulated with 1.5 ng/ml EGF for 15 minutes then cells were lysed with lysis buffer containing 1% Triton X-100, EDTA, and Halt™ Protease & Phosphatase Inhibitor Cocktail (Thermo Scientific). Protein concentration was assessed by BCA protein assay (Thermo Scientific). Phosphorylation level of MAPK was determined by western blot.
(§3) Western blot protocol: Equal amounts of protein (15-50 μg) were separated by SDS-PAGE and transferred to nitrocellulose membranes (Invitrogen by Thermo Fisher Scientific). The membrane was stained with Ponceau S Stain (Boston BioProducts) to verify uniform protein loading. Membranes were blocked with 10% milk and phosphorylation levels of MAPK were assessed by incubating overnight at 4° C. with anti-phospho-p44/42 (Thr202/Tyr204) antibody (Cell Signaling) followed by HRP-conjugated secondary antibody (Jackson Immunoresearch, West Grove, PA). Bands were incubated in Amersham ECL Prime Western Blotting Detection Reagent (GE Healthcare) and visualized using the ChemiDoc MP imaging system (Bio-Rad).

MAPK phosphorylation [2] = assay: MAPK cell-based phosphorylation assay (ELISA or Western), PANC-1; details: Homo sapiens; 10 μM, 6 hours, EGF stimulation, PANC-1
In short: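 Serum-starved (0.5% FBS overnight) cells given compound at 10 μM or serial dilutions (0.3% DMSO) for 6 h at 37 °C, then 1.5 ng/mL EGF for 15 min. Phospho-MAPK read by fixed-cell ELISA (fluorescence, 595 nm) or by Western blot of lysates with anti-phospho-p44/42 (Thr202/Tyr204).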

MAPK phosphorylation [3] = assay: Western MAPK cell-based phosphorylation assay, BxPC3; details: Homo sapiens, BXPC-3, 10 μM, 6 hours, EGF stimulation
Protocol: as §1, §2, §3

AKT phosphorylation = assay: Western AKT cell-based phosphorylation assay, PANC-1; details: Homo sapiens, 6 hours, EGF stimulation, PANC-1
In short: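 PANC-1 cells, serum-starved overnight in 0.5% FBS, were treated with compound at 10 μM (0.3% DMSO) for 6 h at 37 °C and then stimulated with 1.5 ng/ml EGF for 15 min. Lysates (15–50 μg) were immunoblotted for phospho-Akt Ser473, with ECL detection.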

HRas wild type = assay: Ras GTP binding domain inhibition assay (Cy3-GTP/Cy5-GTP competition); design: species or system human; details: at 20 μM; for HRAS wild type + SOS: % inh.: with SOS; for HRas wild type % inh.: without SOS
In short: (§4)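 First, His-tagged protein is coated on nickel wells overnight at 4 °C. Next, compound (20 μM single point or serial dilution) is added for 3 h at room temperature, with or without Sos exchange factor in the last hour. Finally, 100 nM labelled GTP binds for 45 min and retained signal is measured.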

Rac-1 = Rac-1 (Homo sapiens, UniProt P63000); assay: as above
In short: (§5)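 Compounds tested at 20 μM or in serial dilution for IC50 against nickel-captured His-tagged GTPase, 3 hours at room temperature, with or without His-Sos GEF added for last hour. Fluorescent GTP then added at 100 nM for 45 minutes; wells washed, bound label measured by fluorescence.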

Rho-A = Rho-A (Homo sapiens, UniProt P61586); assay: as above
In short: as §5

KRas G12D mutant = target: T1, KRas G12D mutant (Homo sapiens, UniProt P01116, G12D); assay: as above; details: at 20 μM
T1 construct: fused on or other part: His tag, used for capture on nickel-coated plates
In short: as §4

[4] = with SOS, read-out: Rac-1 + SOS: % inh.
[5] = without SOS, read-out: Rac-1: % inh.
[6] = with SOS, read-out: Rho-A + SOS: % inh.
[7] = without SOS, read-out: Rho-A: % inh.
[8] = with SOS, read-out: KRas G12D mutant + SOS: % inh.
[9] = without SOS, read-out: KRas G12D mutant: % inh.

COCC(C)Nc1nc(-c2nccn2C)nc2sc(-c3cccc(OC)c3)c(-c3cscn3)c12 (centres unmarked) [drawing 416]
inhibition at 10 µM (MAPK phosphorylation [1]): 26 to 50% | inhibition at 10 µM (MAPK phosphorylation [2]): 76 to 100% | inhibition at 10 µM (MAPK phosphorylation [3]): 76 to 100% | inhibition at 10 µM (AKT phosphorylation): 0%

COc1cccc(-c2sc3nc(-c4nccn4C)nc(NC4CCC(OC)C4)c3c2-c2ccccc2)c1F (centres unmarked) [drawing 1020]
HRAS wild type + SOS: % inh. (HRas wild type): D (76-100% inhibition) | HRas wild type % inh. (HRas wild type): B (26-50% inhibition) | Rac-1 + SOS: % inh. (Rac-1; at 20 μM, with SOS): B (26-50% inhibition) | Rac-1: % inh. (Rac-1; at 20 μM, without SOS): C (51-75% inhibition) | Rho-A + SOS: % inh. (Rho-A; at 20 μM, with SOS): A (1-25% inhibition) | Rho-A: % inh. (Rho-A; at 20 μM, without SOS): A (1-25% inhibition) | KRas G12D mutant + SOS: % inh. (KRas G12D mutant; with SOS): C (51-75% inhibition) | KRas G12D mutant: % inh. (KRas G12D mutant; without SOS): B (26-50% inhibition)

CN(C)CCOCCNc1nc(-c2nccn2C)nc2sc(-c3ccn(C)n3)c(-c3ccccc3)c12 [drawing 1042]
HRAS wild type + SOS: % inh. (HRas wild type): D (76-100% inhibition) | HRas wild type % inh. (HRas wild type): B (26-50% inhibition) | inhibition at 20 µM (Rac-1; [4]): 51 to 75% | inhibition at 20 µM (Rac-1; [5]): 51 to 75% | inhibition at 20 µM (Rho-A; [6]): 51 to 75% | inhibition at 20 µM (Rho-A; [7]): 51 to 75% | inhibition at 20 µM (KRas G12D mutant; [8]): 51 to 75% | inhibition at 20 µM (KRas G12D mutant; [9]): 26 to 50%

COC1CCC(Nc2nc(-c3nccn3C)nc3sc(-c4cccc5[nH]ncc45)c(-c4ccccc4)c23)C1 (centres unmarked) [drawing 1023]
HRAS wild type + SOS: % inh. (HRas wild type): D (76-100% inhibition) | HRas wild type % inh. (HRas wild type): B (26-50% inhibition) | inhibition at 20 µM (Rac-1; [4]): 51 to 75% | inhibition at 20 µM (Rac-1; [5]): 51 to 75% | inhibition at 20 µM (Rho-A; [6]): 1 to 25% | inhibition at 20 µM (Rho-A; [7]): 26 to 50% | inhibition at 20 µM (KRas G12D mutant; [8]): 26 to 50% | inhibition at 20 µM (KRas G12D mutant; [9]): 26 to 50%

CO[C@H]1C[C@@H](Nc2nc(-c3nccn3C)nc3sccc23)C1 [drawing 1038]
HRAS wild type + SOS: % inh. (HRas wild type): D (76-100% inhibition) | HRas wild type % inh. (HRas wild type): C (51-75% inhibition) | inhibition at 20 µM (Rac-1; [4]): 76 to 100% | inhibition at 20 µM (Rac-1; [5]): 76 to 100% | inhibition at 20 µM (Rho-A; [6]): 26 to 50% | inhibition at 20 µM (Rho-A; [7]): 76 to 100% | inhibition at 20 µM (KRas G12D mutant; [8]): 76 to 100% | inhibition at 20 µM (KRas G12D mutant; [9]): 76 to 100%

COCCNc1nc(-c2nccn2C)nc2sc(-c3cc(OC)ccc3Cl)c(-c3ccccc3)c12 [drawing 426]
inhibition at 10 µM (MAPK phosphorylation [1]): 76 to 100% | inhibition at 10 µM (MAPK phosphorylation [2]): 51 to 75% | inhibition at 10 µM (MAPK phosphorylation [3]): 26 to 50%

Cn1ccc(-c2sc3nc(-c4nccn4C)nc(N[C@H]4C[C@@H](O)C4)c3c2-c2ccccc2)n1 [drawing 1043]
HRAS wild type + SOS: % inh. (HRas wild type): A (1-25% inhibition) | HRas wild type % inh. (HRas wild type): C (51-75% inhibition) | inhibition at 20 µM (Rac-1; [4]): 1 to 25% | inhibition at 20 µM (Rac-1; [5]): 1 to 25% | inhibition at 20 µM (Rho-A; [6]): 26 to 50% | inhibition at 20 µM (Rho-A; [7]): 26 to 50% | inhibition at 20 µM (KRas G12D mutant; [8]): 0% | inhibition at 20 µM (KRas G12D mutant; [9]): 0%

COCC(C)Nc1nc(-c2nccn2C)nc2sc(-c3ccccc3Cl)c(-c3cscn3)c12 (centres unmarked) [drawing 414]
inhibition at 10 µM (MAPK phosphorylation [1]): 76 to 100% | inhibition at 10 µM (MAPK phosphorylation [2]): 76 to 100% | inhibition at 10 µM (MAPK phosphorylation [3]): 26 to 50% | inhibition at 10 µM (AKT phosphorylation): 0%

CO[C@H]1CC[C@@H](Nc2nc(-c3nccn3C)nc3sc(-c4ccn(C(C)C)n4)c(C)c23)C1 [drawing 1054]
HRAS wild type + SOS: % inh. (HRas wild type): D (76-100% inhibition) | HRas wild type % inh. (HRas wild type): C (51-75% inhibition) | inhibition at 20 µM (Rac-1; [4]): 51 to 75% | inhibition at 20 µM (Rac-1; [5]): 51 to 75% | inhibition at 20 µM (Rho-A; [6]): 76 to 100% | inhibition at 20 µM (Rho-A; [7]): 76 to 100% | inhibition at 20 µM (KRas G12D mutant; [8]): 51 to 75% | inhibition at 20 µM (KRas G12D mutant; [9]): 51 to 75%

CO[C@H]1C[C@H](Nc2nc(-c3nccn3C)nc3sc(-c4ccn(C)n4)c(-c4ccccc4)c23)C1 [drawing 1041]
HRAS wild type + SOS: % inh. (HRas wild type): D (76-100% inhibition) | HRas wild type % inh. (HRas wild type): B (26-50% inhibition) | inhibition at 20 µM (Rac-1; [4]): 51 to 75% | inhibition at 20 µM (Rac-1; [5]): 51 to 75% | inhibition at 20 µM (Rho-A; [6]): 51 to 75% | inhibition at 20 µM (Rho-A; [7]): 51 to 75% | inhibition at 20 µM (KRas G12D mutant; [8]): 51 to 75% | inhibition at 20 µM (KRas G12D mutant; [9]): 26 to 50%

Cn1ccc(-c2sc3nc(-c4nccn4C)nc(N[C@@H]4CC[C@H](O)C4)c3c2C2=CC=CCC=C2)n1 (racemic)
HRAS wild type + SOS: % inh. (HRas wild type): A (1-25% inhibition) | HRas wild type % inh. (HRas wild type): C (51-75% inhibition) | inhibition at 20 µM (Rac-1; [4]): 1 to 25% | inhibition at 20 µM (Rac-1; [5]): 1 to 25% | inhibition at 20 µM (Rho-A; [6]): 1 to 25% | inhibition at 20 µM (Rho-A; [7]): 26 to 50% | inhibition at 20 µM (KRas G12D mutant; [8]): 0% | inhibition at 20 µM (KRas G12D mutant; [9]): 0%

CO[C@H]1C[C@@H](Nc2nc(-c3ccccn3)nc3sccc23)C1 [drawing 1037]
HRAS wild type + SOS: % inh. (HRas wild type): D (76-100% inhibition) | HRas wild type % inh. (HRas wild type): C (51-75% inhibition) | inhibition at 20 µM (Rac-1; [4]): 76 to 100% | inhibition at 20 µM (Rac-1; [5]): 76 to 100% | inhibition at 20 µM (Rho-A; [6]): 51 to 75% | inhibition at 20 µM (Rho-A; [7]): 76 to 100% | inhibition at 20 µM (KRas G12D mutant; [8]): 51 to 75% | inhibition at 20 µM (KRas G12D mutant; [9]): 51 to 75%

COCCNc1nc(-c2nccn2C)nc2sc(-c3cc(OC)ccc3Cl)c(-c3ccc(OC)cc3)c12 [drawing 421]
inhibition at 10 µM (MAPK phosphorylation [1]): 0% | inhibition at 10 µM (MAPK phosphorylation [2]): 51 to 75% | inhibition at 10 µM (MAPK phosphorylation [3]): 0% | inhibition at 10 µM (AKT phosphorylation): 0%

CO[C@H]1C[C@@H](Nc2nc(-c3nccn3C)nc3sc(-c4ccn(C)n4)c(-c4ccccc4)c23)C1.Cl [drawing 1040]
HRAS wild type + SOS: % inh. (HRas wild type): D (76-100% inhibition) | HRas wild type % inh. (HRas wild type): B (26-50% inhibition) | inhibition at 20 µM (Rac-1; [4]): 76 to 100% | inhibition at 20 µM (Rac-1; [5]): 51 to 75% | inhibition at 20 µM (Rho-A; [6]): 51 to 75% | inhibition at 20 µM (Rho-A; [7]): 51 to 75% | inhibition at 20 µM (KRas G12D mutant; [8]): 51 to 75% | inhibition at 20 µM (KRas G12D mutant; [9]): 26 to 50%
